Test results reported in patent US20150157588A1, “Pharmaceutical Composition Comprising Amino-Phenyl-Acetic Acid Octadec-(Z)-9-enyl Ester and Use Thereof for Treating Tumors” (Yeda Research and Development Co., Ltd., priority 2012, published 2015).

Legend:
[1] = system: Clone D122 of the 3LL mouse Lewis Lung carcinoma; assay: Lung carcinoma mouse model: 3LL cells in footpad, local growth and mortality from lung metastasis after excision; type: in vivo; conditions: for day of 50% mortality from lung metastasis: 100 μg in PBS subcutaneously twice weekly
Procedure: Clone D122 of the 3LL mouse Lewis Lung carcinoma, a standard model of growth and metastasis, was used. Syngeneic 8-weeks old C57BL/6 male mice were injected into one hind footpad with 50,000 3LL tumor cells. Local growth of the tumor was followed. Tumors that reached the size of 8 mm×8 mm were excised; tumor excision at this stage was known to trigger the growth of lung metastases that eventually killed the mice. This model allows for investigation of the effect of treatment on two phases of the tumor progression: 1) the effect on local growth, as determined by the time it takes for the tumors to reach the size for excision; and 2) the effect on tumor metastasis as measured by the time it takes for death to occur after excision.
Three groups of 12-13 mice each were injected with 3LL tumor cells as described in the Materials and Methods section, and were treated subcutaneously with 100 μg of amino-phenyl-acetic acid octadec-(Z)-9-enyl ester injected twice weekly (every Monday and Thursday) either from day 6 after tumor injection (to investigate the effect on local growth and metastasis) or from the time of excision of the tumor (to investigate the effect on metastasis only), or were injected with PBS as a control. […] Tumors were excised on the same day. Mice treated with PBS or mice treated with amino-phenyl-acetic acid octadec-(Z)-9-enyl ester in PBS only following tumor excision reached excision size beginning on day 25 (white bars). In contrast, mice treated with amino-phenyl-acetic acid octadec-(Z)-9-enyl ester from day 6 following injection (black bars) reached excision size on day 32, and all mice were excised by day 41.
The PBS-treated mice reached 50% mortality on day 50 (triangles); the mice receiving amino-phenyl-acetic acid octadec-(Z)-9-enyl ester in PBS after tumor excision reached 50% mortality only on day 68 (squares); and the mice treated with amino-phenyl-acetic acid octadec-(Z)-9-enyl ester in PBS from day 6 following tumor implantation reached 50% mortality on day 90 (circles).

[2] = system: unstimulated CD3 positive T cells; assay: Microarray gene expression, unstimulated T cells; type: cell-based, human; conditions: for Fold change C16orf7: 205781_at; for Fold change TNFRSF17: 206641_at; for Fold change LILRB2 /// LILRB3: 210784_x_at; for Fold change CLEC11A: 211709_s_at; for Fold change WDR33: 218851_s_at
Procedure: CD3 positive T cells were extracted from a healthy donor according to a standard protocol, and seeded in T cell medium including RPMI, 10% fetal calf serum, sodium pyruvate, L-Glutamine, and Penicillin/Streptomycin. Following an overnight incubation with medium, the cells were treated by incubating for 2 hours at 37° C. with amino-phenyl-acetic acid octadec-(Z)-9-enyl ester at a concentration of 10 micrograms/ml in a final volume of 10 ml in T-cell medium with or without 0.05% ethanol. After incubation, half the cells from each treatment were centrifuged and 2 ml of Tri-reagent (Sigma) were added to the pellet. The other half of the cells from each treatment were transferred to anti-CD3 antibody coated 24 well plates for an overnight incubation at 37° C. Coating plates with an anti-CD3 antibody was carried out by incubating with 2 micrograms/ml of OKT3 anti-CD3 antibody overnight at 4° C., washing three times with PBS and blocking with filtered 1% Bovine Serum Albumin for 1 hour. After activation with anti-CD3 antibody, cells were centrifuged and 2 ml of Tri-reagent were added to the pellet.
RNA was extracted from unstimulated cells and from cells activated with anti-CD3 according to standard protocols and used for hybridization with a Human Genome U133A 2.0 (Affymetrix, Catalogue number 900468), according to the manufacturer's instructions. The results of the hybridization were read by a GeneChip scanner 3000 (Affymetrix) and analyzed by QuantArray (GSI lumonics).
The effects of amino-phenyl-acetic acid octadec-(Z)-9-enyl ester in ethanol solution or in an aqueous vehicle (hereinafter termed “in PBS”) on gene expression in unstimulated T cells and T cells activated by anti-CD3 antibody were compared by microarray analysis.

[3] = system: human peripheral blood T cells; assay: Apoptosis by FACS, hypo-diploid nuclei PI staining, healthy T cells; type: cell-based; conditions: 10 μg in ethanol solution, versus control molecule
Procedure: (§1) White bars (left bar of each pair) represent cells treated with 10 μg of amino-phenyl-acetic acid octadec-(Z)-9-enyl ester in ethanol solution, and black bars (right bar of each pair) represent cells treated with 10 μg of the control molecule 4-methyl-piperazino-acetic acid ethyl ester in ethanol solution. The two bars on the left represent freshly isolated T cells and the two bars on the right represent transformed Jurkat cells.
(§2) B or T-cell apoptosis was detected by flow cytometry. Briefly, purified cells were seeded in 24 well plates, 5×10^5 per well, and incubated for 48 h at 37° C. 5% CO2 in the presence of HSP60 (heat shock protein 60) at the indicated concentration of amino-phenyl-acetic acid octadec-(Z)-9-enyl ester. […] The cells were then subjected to flow cytometric analysis; for each sample 10,000 were collected and cell-cycle distribution was analyzed according to relative DNA content (PI staining). […] The cells were then collected, stained by APO-DIRECT TUNNEL kit (Phnxflow, CITY, Calif., USA); mitochondrial potential was measured by DePsipher (R&D Systems, Minneapolis, Minn.) according to the manufacturer's procedure. Intracellular caspase activity was measured by Apostat kit (R&D Systems), according to the manufacturer's procedure. The cells were analyzed by Flow cytometry using FACSort (Becton Dickinson) and CellQuest software (Becton Dickinson).

[4] = system: Jurkat transformed T cell line; assay: Apoptosis by FACS, hypo-diploid nuclei PI staining, Jurkat cells; type: cell-based, human; conditions: Jurkat tumor line cells; 10 μg in ethanol solution
Procedure: as §1, §2

[5] = 100 μg in PBS subcutaneously twice weekly from day 6 after tumor injection
[6] = in ethanol solution vs untreated
[7] = in ethanol solution vs untreated, data not shown

`CCCCCCCC/C=C\CCCCCCCCOC(=O)C(N)c1ccccc1` (stereo not shown) [amino-phenyl-acetic acid octadec-(Z)-9-enyl ester] was tested, and the “day after tumor injection on which mice reached excision size (8 mm×8 mm)” value [1, 5] was 32 days, the “day by which all mice were excised” value [1, 5] was no more than 41 days and the “day of 50% mortality from lung metastasis” value ([1]; from day 6 following tumor implantation) was 90 days. For the same molecule, the “day of 50% mortality from lung metastasis” value ([1]; from tumor excision) was 68 days, the “effect on local tumor growth” value ([1]; twice weekly at the dose of 100 μg, in PBS, subcutaneously) was “inhibited local tumor growth” and the “Fold change SYMPK” value ([2]; 32402_s_at, in ethanol solution vs in PBS) was 2.03. The “Fold change HEY1” value ([2]; 44783_s_at, in ethanol solution vs untreated) was 2.11, the “Fold change TPM2” value ([2]; 204083_s_at, in ethanol solution vs untreated) was 2.39 and the “Fold change CDC25A” value ([2]; 204695_at, in ethanol solution vs in PBS) was 1.94. For the same molecule, the “Fold change EPHB6” value ([2]; 204718_at, in ethanol solution vs in PBS) was 2.019, the “Fold change RRAD” value ([2]; 204802_at, in ethanol solution vs in PBS) was 2.27 and the “Fold change C16orf7” value ([2]; in ethanol solution vs in PBS) was 2.54. The “Fold change C16orf7” value [2, 6] was 2.15, the “Fold change RASA3” value ([2]; 206221_at, in PBS vs untreated) was −2.23 and the “Fold change FLJ23556” value ([2]; 206548_at, in ethanol solution vs in PBS) was 1.94. The “Fold change TNFRSF17” value ([2]; in ethanol solution vs in PBS) was 2.08, the “Fold change TNFRSF17” value [2, 6] was 2.06 and the “Fold change SPAG9” value ([2]; 206748_s_at, in PBS vs untreated) was −1.81. For the same molecule, the “Fold change CRTC1” value ([2]; 207159_x_at, in ethanol solution vs in PBS) was 1.96, the “Fold change TSPAN4” value ([2]; 209263_x_at, in ethanol solution vs in PBS) was 2.24 and the “Fold change SF3A2” value ([2]; 209381_x_at, in ethanol solution vs untreated) was 1.95. The “Fold change TBC1D22A” value ([2]; 210144_at, in ethanol solution vs untreated) was 2.03, the “Fold change LILRB2 /// LILRB3” value ([2]; in PBS vs untreated) was −1.84 and the “Fold change LILRB2 /// LILRB3” value ([2]; in ethanol solution vs in PBS) was 2.00. The “Fold change CLEC11A” value ([2]; in ethanol solution vs in PBS) was 2.10, the “Fold change CLEC11A” value [2, 6] was 2.19 and the “Fold change BOP1 /// LOC727967” value ([2]; 212563_at, in ethanol solution vs in PBS) was 1.94. The “Fold change ID2 /// ID2B” value ([2]; 213931_at, in ethanol solution vs in PBS) was 2.04, the “Fold change MCL1” value ([2]; 214057_at, in ethanol solution vs untreated) was 2.12 and the “Fold change S100A8” value ([2]; 214370_at, in ethanol solution vs untreated) was 1.9. For the same molecule, the “Fold change MTMR1” value ([2]; 214975_s_at, in PBS vs untreated) was −2.41, the “Fold change probeset 215450_at” value ([2]; 215450_at, in ethanol solution vs untreated) was 1.98 and the “Fold change ARPC4” value ([2]; 217817_at, in ethanol solution vs untreated) was 2.03. The “Fold change CENPT” value ([2]; 218148_at, in ethanol solution vs untreated) was 1.94, the “Fold change CLN6” value ([2]; 218161_s_at, in ethanol solution vs in PBS) was 1.94 and the “Fold change IGF2BP2” value ([2]; 218847_at, in ethanol solution vs untreated) was 2.02. The “Fold change WDR33” value ([2]; in ethanol solution vs in PBS) was 2.79, the “Fold change WDR33” value [2, 6] was 2.32 and the “Fold change IGHD” value ([2]; 222285_at, in ethanol solution vs untreated) was 1.98. For the same molecule, the “Fold change probeset 222376_at” value ([2]; 222376_at, in ethanol solution vs untreated) was 2.11, the up-regulated genes ([2]; in PBS vs untreated) was “no significantly up-regulated genes” and the “number of down-regulated genes” value ([2]; in ethanol solution compared with in PBS) was 497 genes. The “fold down-regulation of the down-regulated genes” value [2, 7] was 2-18 fold, the “number of down-regulated genes” value [2, 7] was 573 genes and the apoptosis [3] was “no more apoptosis than with a control molecule”. It also gave an apoptosis [4] of 100%.
